Assay results reported in the NIST ThermoML archive (doi:10.1021/je700707y).
Where “and” joins values, the source holds several entries; their conditions need not be identical. Identical values can stand only once.

Legend:
[1] = 101.33 kPa, Liquid, Vibrating tube method
[2] = wn = mass fraction of the nth substance listed; details: Liquid, Vibrating tube method, w2 = 0.001

CCCCCC[n+]1ccn(C)c1.FC(F)(F)C(F)(F)[P-](F)(F)(F)(C(F)(F)C(F)(F)F)C(F)(F)C(F)(F)F
[1]
Details | mass density [kg/m3]
293.15 K | 1557.1
298.15 K | 1551.8
303.15 K | 1546.4
313.15 K | 1535.7
323.15 K | 1525
333.15 K | 1514.3
343.15 K | 1503.6
353.15 K | 1493
363.15 K | 1482.4

CCOS(=O)(=O)[O-].CCn1cc[n+](C)c1 [1-ethyl-3-methylimidazolium ethyl sulfate]
[1]
Details | mass density [kg/m3]
293.15 K | 1242.3
303.15 K | 1235.6
313.15 K | 1228.9
323.15 K | 1222.1
333.15 K | 1215.5
343.15 K | 1208.8
353.15 K | 1202.2
363.15 K | 1195.6

CCCCn1cc[n+](C)c1.F[P-](F)(F)(F)(F)F [1-butyl-3-methylimidazolium hexafluorophosphate] + O
[2], 101 kPa
Details | mass density [kg/m3]
293.15 K | 1367.5
298.15 K | 1363.4
303.15 K | 1359.2
308.15 K | 1355.2
313.15 K | 1351
318.15 K | 1346.8
323.15 K | 1342.4
328.15 K | 1338.5
333.15 K | 1334.4
338.15 K | 1330.3
343.15 K | 1326.2

CCCCn1cc[n+](C)c1.F[B-](F)(F)F [1-butyl-3-methylimidazolium tetrafluoroborate]
[1]
Details | mass density
293.15 K | 1203.8 kg/m3 and 1204.9 kg/m3
298.15 K | 1200 kg/m3 and 1201.1 kg/m3
303.15 K | 1196.2 kg/m3 and 1197.4 kg/m3
308.15 K | 1192.4 kg/m3 and 1193.8 kg/m3
313.15 K | 1188.9 kg/m3 and 1190.1 kg/m3
318.15 K | 1185.4 kg/m3 and 1186.5 kg/m3
323.15 K | 1181.3 kg/m3 and 1182.7 kg/m3
328.15 K | 1177.9 kg/m3 and 1179 kg/m3
333.15 K | 1174.1 kg/m3 and 1175.3 kg/m3
338.15 K | 1170.5 kg/m3 and 1171.7 kg/m3
343.15 K | 1166.9 kg/m3 and 1168 kg/m3

CCCC[n+]1ccn(C)c1.O=S(=O)([N-]S(=O)(=O)C(F)(F)F)C(F)(F)F
[1]
Details | mass density
293.15 K | 1442.7 kg/m3 and 1440.2 kg/m3
298.15 K | 1437.9 kg/m3
303.15 K | 1433.1 kg/m3 and 1430.7 kg/m3
308.15 K | 1428.3 kg/m3
313.15 K | 1423.5 kg/m3 and 1421.2 kg/m3
318.15 K | 1418.8 kg/m3
323.15 K | 1414 kg/m3 and 1411.8 kg/m3
328.15 K | 1409.3 kg/m3
333.15 K | 1404.5 kg/m3 and 1402.4 kg/m3
338.15 K | 1399.7 kg/m3
343.15 K | 1395 kg/m3 and 1393 kg/m3
353.15 K | 1383.6 kg/m3
363.15 K | 1374.3 kg/m3

Cn1cc[n+](C)c1.N#C[S-] [1,3-dimethylimidazolium thiocyanate]
[1]
Details | mass density [kg/m3]
293.15 K | 1160.7
298.15 K | 1157.4
303.15 K | 1154.2
313.15 K | 1147.8
323.15 K | 1141.4
333.15 K | 1135.2
343.15 K | 1129.1
353.15 K | 1123.1
363.15 K | 1117.2

CCCCn1cc[n+](C)c1.O=S(=O)([O-])C(F)(F)F [1-butyl-3-methylimidazolium trifluoromethanesulfonate]
[1]
Details | mass density [kg/m3]
293.15 K | 1301.3
303.15 K | 1293.4
313.15 K | 1285.6
323.15 K | 1277.7
333.15 K | 1269.9
343.15 K | 1262.3
353.15 K | 1254.5
363.15 K | 1246.9

CCCC[N+]1(C)CCCC1.FC(F)(F)C(F)(F)[P-](F)(F)(F)(C(F)(F)C(F)(F)F)C(F)(F)C(F)(F)F
[1]
Details | mass density [kg/m3]
293.15 K | 1588.1
303.15 K | 1577.3
313.15 K | 1566.8
323.15 K | 1556.4
333.15 K | 1545.9
343.15 K | 1535.5
353.15 K | 1525.1
363.15 K | 1514.7

CCCCCCCCCCCCCC[P+](CCCCCC)(CCCCCC)CCCCCC.O=S(=O)([N-]S(=O)(=O)C(F)(F)F)C(F)(F)F + O
Details | mass density [kg/m3]
[2], 298.15 K, 100 kPa | 1060.1

CCCC[n+]1ccn(C)c1.O=S(=O)([N-]S(=O)(=O)C(F)(F)F)C(F)(F)F + O
[2], 101 kPa
Details | mass density [kg/m3]
293.15 K | 1439.9
298.15 K | 1435.1
303.15 K | 1430.3
308.15 K | 1425.5
313.15 K | 1420.7
318.15 K | 1416
323.15 K | 1411.2
328.15 K | 1406.5
333.15 K | 1401.7
338.15 K | 1396.9
343.15 K | 1392.2

C[N+]1(CC#N)CCCC1.O=S(=O)([N-]S(=O)(=O)C(F)(F)F)C(F)(F)F
[1]
Details | mass density [kg/m3]
293.15 K | 1545.4
298.15 K | 1537.8
303.15 K | 1533.1
313.15 K | 1523.8
323.15 K | 1514.5
333.15 K | 1505.5
343.15 K | 1496.7
353.15 K | 1487.8
363.15 K | 1479

CCCCn1cc[n+](C)c1.F[B-](F)(F)F [1-butyl-3-methylimidazolium tetrafluoroborate] + O
Details | mass density [kg/m3]
[2], 298.15 K, 100 kPa | 1197.5

CCCCn1cc[n+](C)c1.F[P-](F)(F)(F)(F)F [1-butyl-3-methylimidazolium hexafluorophosphate]
[1]
Details | mass density
293.15 K | 1369.8 kg/m3 and 1368.1 kg/m3
298.15 K | 1365.7 kg/m3 and 1364.1 kg/m3
303.15 K | 1361.6 kg/m3 and 1360 kg/m3
308.15 K | 1357.4 kg/m3 and 1355.7 kg/m3
313.15 K | 1353.3 kg/m3 and 1351.8 kg/m3
318.15 K | 1349.2 kg/m3 and 1347.5 kg/m3
323.15 K | 1345.1 kg/m3 and 1343.5 kg/m3
328.15 K | 1341 kg/m3 and 1339.4 kg/m3
333.15 K | 1336.9 kg/m3 and 1335.2 kg/m3
338.15 K | 1332.7 kg/m3 and 1331.1 kg/m3
343.15 K | 1328.6 kg/m3 and 1327 kg/m3

CCCCCCCCn1cc[n+](C)c1.O=S(=O)([N-]S(=O)(=O)C(F)(F)F)C(F)(F)F
[1]
Details | mass density [kg/m3]
293.15 K | 1324.5
303.15 K | 1315.8
313.15 K | 1307
323.15 K | 1298.2
333.15 K | 1289.5
343.15 K | 1280.8
353.15 K | 1272.1
363.15 K | 1263.5

CCCCCCCCCCn1cc[n+](C)c1.O=S(=O)([N-]S(=O)(=O)C(F)(F)F)C(F)(F)F + O
Details | mass density [kg/m3]
[2], 298.15 K, 100 kPa | 1275.5

CCCCCCCCCCCCCC[P+](CCCCCC)(CCCCCC)CCCCCC.O=S(=O)([N-]S(=O)(=O)C(F)(F)F)C(F)(F)F
[1]
Details | mass density [kg/m3]
293.15 K | 1067.6
303.15 K | 1060.3
313.15 K | 1052.9
323.15 K | 1045.7
333.15 K | 1038.6
343.15 K | 1031.5
353.15 K | 1024.4
363.15 K | 1017.3

CCCCCCCCCCn1cc[n+](C)c1.O=S(=O)([N-]S(=O)(=O)C(F)(F)F)C(F)(F)F
[1]
Details | mass density [kg/m3]
293.15 K | 1282.4
303.15 K | 1273.8
313.15 K | 1265.3
323.15 K | 1256.8
333.15 K | 1248.3
343.15 K | 1239.9
353.15 K | 1231.4
363.15 K | 1223.1

CCn1cc[n+](C)c1.O=S(=O)([N-]S(=O)(=O)C(F)(F)F)C(F)(F)F + O
[2], 101 kPa
Details | mass density [kg/m3]
293.15 K | 1520
298.15 K | 1515
303.15 K | 1510
308.15 K | 1504.9
313.15 K | 1499.8
318.15 K | 1494.8
323.15 K | 1489.8
328.15 K | 1484.8
333.15 K | 1479.7
338.15 K | 1474.7
343.15 K | 1469.7

CCn1cc[n+](C)c1.O=S(=O)([N-]S(=O)(=O)C(F)(F)F)C(F)(F)F
[1]
Details | mass density
293.15 K | 1522.9 kg/m3 and 1523.4 kg/m3
298.15 K | 1517.9 kg/m3
303.15 K | 1512.9 kg/m3 and 1513.4 kg/m3
308.15 K | 1507.9 kg/m3
313.15 K | 1502.9 kg/m3 and 1503.4 kg/m3
318.15 K | 1497.9 kg/m3
323.15 K | 1492.9 kg/m3 and 1493.4 kg/m3
328.15 K | 1488 kg/m3
333.15 K | 1483 kg/m3 and 1483.5 kg/m3
338.15 K | 1478 kg/m3
343.15 K | 1473 kg/m3 and 1473.7 kg/m3
353.15 K | 1463.8 kg/m3
363.15 K | 1454 kg/m3

N#CC[n+]1ccccc1.O=S(=O)([N-]S(=O)(=O)C(F)(F)F)C(F)(F)F
[1]
Details | mass density [kg/m3]
293.15 K | 1636.2
298.15 K | 1631.2
303.15 K | 1626.2
313.15 K | 1616.2
323.15 K | 1606.4
333.15 K | 1596.8
343.15 K | 1587.3
353.15 K | 1577.7
363.15 K | 1568.3

CCCCCC[n+]1ccn(C)c1.O=S(=O)([N-]S(=O)(=O)C(F)(F)F)C(F)(F)F
[1]
Details | mass density [kg/m3]
293.15 K | 1375.1
303.15 K | 1366
313.15 K | 1356.9
323.15 K | 1347.9
333.15 K | 1338.8
343.15 K | 1329.8
353.15 K | 1320.9
363.15 K | 1311.9
